Reference: US11897867B2, “6-phenyl-4,5-dihydropyridazin-3(2H)-one derivatives as PDE3A and PDE3B inhibitors for treating cancer” (Bayer Aktiengesellschaft, priority 2017, dated 2024)

Columns and labels:
[1] = biological target: T1, human full length PDE3A (Homo sapiens, UniProt Q14432); assay: PDE3A enzyme inhibition (3H-cAMP Scintillation Proximity Assay); assay type: biochemical; conditions: PDE3A cell extract from Sf9 cells, 60 min room temperature; read-out: Target IC50 PDE3A IC50
T1 construct: Sf9 cells overexpressing human full length PDE3A; purchased SB Drug Discovery, UK; host or cells: Sf9 cells (cell extract)
T1 sequence (Q14432 whole entry): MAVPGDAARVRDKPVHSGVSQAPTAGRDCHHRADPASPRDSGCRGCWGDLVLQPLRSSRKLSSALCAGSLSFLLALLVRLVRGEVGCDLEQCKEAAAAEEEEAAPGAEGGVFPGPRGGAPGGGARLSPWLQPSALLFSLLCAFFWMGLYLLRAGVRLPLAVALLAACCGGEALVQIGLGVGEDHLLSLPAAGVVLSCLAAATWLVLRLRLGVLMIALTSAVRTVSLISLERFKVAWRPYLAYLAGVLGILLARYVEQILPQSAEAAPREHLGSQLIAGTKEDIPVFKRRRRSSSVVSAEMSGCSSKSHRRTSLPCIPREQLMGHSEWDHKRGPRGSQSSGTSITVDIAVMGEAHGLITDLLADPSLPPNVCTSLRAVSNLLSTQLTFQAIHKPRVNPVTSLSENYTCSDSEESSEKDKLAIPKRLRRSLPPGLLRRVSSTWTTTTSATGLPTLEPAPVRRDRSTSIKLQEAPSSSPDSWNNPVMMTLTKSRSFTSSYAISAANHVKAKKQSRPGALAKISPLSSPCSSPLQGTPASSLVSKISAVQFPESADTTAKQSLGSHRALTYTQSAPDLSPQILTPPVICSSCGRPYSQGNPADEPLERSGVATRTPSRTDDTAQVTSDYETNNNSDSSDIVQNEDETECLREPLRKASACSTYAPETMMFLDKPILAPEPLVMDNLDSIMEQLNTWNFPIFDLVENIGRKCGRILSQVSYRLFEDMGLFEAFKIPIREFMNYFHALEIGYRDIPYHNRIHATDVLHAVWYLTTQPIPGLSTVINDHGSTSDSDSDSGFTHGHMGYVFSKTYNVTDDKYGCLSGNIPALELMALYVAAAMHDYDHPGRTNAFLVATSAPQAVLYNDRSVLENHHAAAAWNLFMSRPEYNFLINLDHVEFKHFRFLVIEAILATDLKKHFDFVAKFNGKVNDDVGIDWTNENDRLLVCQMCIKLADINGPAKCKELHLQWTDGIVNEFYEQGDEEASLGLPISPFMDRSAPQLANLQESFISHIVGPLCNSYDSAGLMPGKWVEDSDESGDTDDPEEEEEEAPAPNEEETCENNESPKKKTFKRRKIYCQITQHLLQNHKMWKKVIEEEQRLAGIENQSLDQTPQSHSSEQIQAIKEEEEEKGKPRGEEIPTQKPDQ
Summary of the method: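 Sf9 cell extract overexpressing human full-length PDE3A, diluted for linear kinetics (<70% substrate used), in 50 mM Tris/HCl pH 7.5, 8.3 mM MgCl2, 1.7 mM EDTA, 0.2% BSA. [8-3H]cAMP substrate, 60 min at room temperature, yttrium SPA bead read-out; IC50 from sigmoidal curves of % activity.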

[2] = system: SK-MEL-3 (melanoma); assay: Cell proliferation measurement (Cell Titer Glo), SK-MEL-3; assay type: cell-based; conditions: Homo sapiens, SK-MEL3, SK-MEL-3 cells, 72 h treatment, read-out: Anti-proliferation IC50 SK-MEL-3 (melanoma)
Summary of the method: (§1)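 Cells (1000/well; 500 for HeLa) plated overnight at 37 °C, then exposed to a ≥10-point compound dilution series for 72 h at 37 °C, DMSO 0.3% final as vehicle. Viability read by CellTiter-Glo luminescence; IC50 from 4-parameter fit against untreated wells.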

[3] = biological target: T2, human full length PDE3B (Homo sapiens, UniProt Q13370); assay: PDE3B enzyme inhibition (3H-cAMP Scintillation Proximity Assay); assay type: biochemical; conditions: PDE3B cell extract from Sf9 cells, 60 min room temperature; read-out: Target IC50 PDE3B IC50
T2 construct: Sf9 cells overexpressing human full length PDE3B; purchased SB Drug Discovery, UK; host or cells: Sf9 cells (cell extract)
T2 sequence (Q13370 whole entry): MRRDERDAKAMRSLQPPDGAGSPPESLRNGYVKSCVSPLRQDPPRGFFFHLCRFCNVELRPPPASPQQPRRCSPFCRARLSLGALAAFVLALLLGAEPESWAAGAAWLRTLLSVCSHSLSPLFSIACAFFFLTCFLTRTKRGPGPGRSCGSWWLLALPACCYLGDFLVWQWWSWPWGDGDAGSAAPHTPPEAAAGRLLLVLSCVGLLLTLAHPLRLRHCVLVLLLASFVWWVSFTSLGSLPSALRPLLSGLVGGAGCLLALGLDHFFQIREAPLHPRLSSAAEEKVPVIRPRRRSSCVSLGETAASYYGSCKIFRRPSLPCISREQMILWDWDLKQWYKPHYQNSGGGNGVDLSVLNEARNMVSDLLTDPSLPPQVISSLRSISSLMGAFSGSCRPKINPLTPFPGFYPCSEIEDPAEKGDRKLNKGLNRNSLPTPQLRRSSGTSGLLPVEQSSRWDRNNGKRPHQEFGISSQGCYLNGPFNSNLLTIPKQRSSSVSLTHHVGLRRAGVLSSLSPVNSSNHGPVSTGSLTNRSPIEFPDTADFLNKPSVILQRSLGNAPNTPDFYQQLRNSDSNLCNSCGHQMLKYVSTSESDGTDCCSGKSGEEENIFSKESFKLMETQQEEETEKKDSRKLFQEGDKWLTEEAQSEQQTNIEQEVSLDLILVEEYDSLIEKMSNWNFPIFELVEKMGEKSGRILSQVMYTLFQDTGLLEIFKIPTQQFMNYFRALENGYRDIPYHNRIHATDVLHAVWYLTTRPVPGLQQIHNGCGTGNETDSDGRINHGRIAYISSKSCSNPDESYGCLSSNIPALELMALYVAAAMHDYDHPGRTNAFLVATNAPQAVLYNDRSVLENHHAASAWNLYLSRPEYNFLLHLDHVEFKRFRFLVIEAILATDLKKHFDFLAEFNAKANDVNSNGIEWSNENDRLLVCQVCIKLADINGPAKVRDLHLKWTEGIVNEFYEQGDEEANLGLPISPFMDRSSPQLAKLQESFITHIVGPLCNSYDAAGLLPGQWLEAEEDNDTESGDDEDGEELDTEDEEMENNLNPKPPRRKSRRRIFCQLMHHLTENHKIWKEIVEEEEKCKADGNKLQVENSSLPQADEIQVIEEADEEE
Summary of the method: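 SPA with Sf9 cell extract overexpressing human full-length PDE3B, diluted for linear kinetics and <70% substrate turnover, in 50 mM Tris/HCl pH 7.5, 8.3 mM MgCl2, 1.7 mM EDTA, 0.2% BSA. [8-3H]cAMP substrate, 60 min at room temperature, stopped with yttrium SPA beads. IC50 from sigmoidal fit of % activity vs log concentration.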

[4] = system: HeLa cells (cervical cancer); assay: Cell proliferation measurement (Cell Titer Glo), HeLa; assay type: cell-based; conditions: Homo sapiens, 72 h treatment, read-out: Anti-proliferation IC50 HeLa (Cervical cancer)
Summary of the method: as §1

Structure (SMILES)	IC50 [1]	IC50 [2]	IC50 [3]	IC50 [4]
C/C=C(\C)c1ccc(C2=NNC(=O)CC2)cc1F [Example 36, 6-{4-[(2E)-but-2-en-2-yl]-3-fluorophenyl}-4,5-dihydropyridazin-3(2H)-one]	420 nM	14.3 nM	390 nM	8.33 nM
Cc1cc(F)ccc1-c1ccc(C2=NNC(=O)CC2)cc1C [Example 4, 6-(4′-Fluoro-2,2′-dimethylbiphenyl-4-yl)-4,5-dihydropyridazin-3(2H)-one]	420 nM	22.8 nM	160 nM	12.5 nM
N#Cc1ccc(-c2ccc(C3=NNC(=O)CC3)cc2F)cc1 [Example 46, 2′-fluoro-4′-(6-oxo-1,4,5,6-tetrahydropyridazin-3-yl)[1,1′-biphenyl]-4-carbonitrile]	61 nM	12.7 nM	37 nM	9.65 nM
Cc1ccc(-c2ccc(C3=NNC(=O)CC3)cc2C)c(F)c1 [Example 94, 6-(2′-fluoro-2,4′-dimethyl[1,1′-biphenyl]-4-yl)-4,5-dihydropyridazin-3(2H)-one]	190 nM	36.9 nM	175 nM	7.01 nM
O=C1CCC(c2ccc(-c3ccc(F)c(Cl)c3)c(F)c2)=NN1 [Example 83, 6-(3′-chloro-2,4′-difluoro[1,1′-biphenyl]-4-yl)-4,5-dihydropyridazin-3(2H)-one]	560 nM	61.8 nM	280 nM	39.7 nM
Cc1cc(C2=NNC(=O)CC2)ccc1-c1ccc(Cl)cc1 [Example 122, 6-(4′-chloro-2-methyl[1,1′-biphenyl]-4-yl)-4,5-dihydropyridazin-3(2H)-one]	280 nM	9.92 nM	200 nM	2.67 nM
Cc1ccc(F)cc1-c1ccc(C2=NNC(=O)CC2)cc1F [Example 57, 6-(2,5′-difluoro-2′-methyl[1,1′-biphenyl]-4-yl)-4,5-dihydropyridazin-3(2H)-one]	180 nM	11.8 nM	60 nM	5.34 nM
COc1ncccc1-c1ccc(C2=NNC(=O)CC2)cc1F [Example 70, 6-[3-fluoro-4-(2-methoxypyridin-3-yl)phenyl]-4,5-dihydropyridazin-3(2H)-one]	57 nM	39.8 nM	50 nM	22.9 nM
Cc1cc(C2=NNC(=O)CC2)ccc1-c1ccccc1C#N [Example 99, 2′-methyl-4′-(6-oxo-1,4,5,6-tetrahydropyridazin-3-yl)[1,1′-biphenyl]-2-carbonitrile]	280 nM	> 100 nM	530 nM	39.9 nM
O=C1CCC(c2ccc(N3CCOCC3)c(C(F)(F)F)c2)=NN1 [Example 126, 6-[4-(Morpholin-4-yl)-3-(trifluoromethyl)phenyl]-4,5-dihydropyridazin-3(2H)-one]	59 nM	7.06 nM	95 nM	5.29 nM
COc1ccc(-c2ccc(C3=NNC(=O)CC3)cc2C)cn1 [Example 118, 6-[4-(6-methoxypyridin-3-yl)-3-methylphenyl]-4,5-dihydropyridazin-3(2H)-one]	76 nM	> 100 nM	90 nM	55.4 nM
COc1ccc(C2=NNC(=O)CC2)cc1Cl [Example 10, 6-(3-Chloro-4-methoxyphenyl)-4,5-dihydropyridazin-3(2H)-one]	110 nM	40.2 nM	110 nM	31.8 nM
Cc1ccccc1-c1ccc(C2=NNC(=O)CC2)cc1C [Example 116, 6-(2,2′-dimethyl[1,1′-biphenyl]-4-yl)-4,5-dihydropyridazin-3(2H)-one]	220 nM	42.9 nM	170 nM	8.39 nM
O=C1CCC(c2ccc(-c3ccccc3F)c(F)c2)=NN1 [Example 60, 6-(2,2′-difluoro[1,1′-biphenyl]-4-yl)-4,5-dihydropyridazin-3(2H)-one]	96 nM	4.2 nM	47 nM	2.08 nM
